In series [1] the target is T1, Vascular endothelial growth factor receptor 2 (Homo sapiens, UniProt P35968). Nature of the series: Inhibition of VEGFR2 (unknown origin).
For series [2], the target named is T2, Serine/threonine-protein kinase B-raf (Homo sapiens, UniProt P15056, V600E). Description: Inhibition of BRAF V600E mutant (unknown origin).
The species entered for another series is Homo sapiens. Nature of the series: Selectivity factor, ratio of IC50 for VEGFR2 (unknown origin) to IC50 for N-terminal FLAG-tagged recombinant BRAF-V600E (unknown origin) expressed in baculovirus system.
Series [3] concerns the target T1, Vascular endothelial growth factor receptor 2. Nature of the series: Inhibition of VEGFR2 (unknown origin) using biotinylated poly-GluTyr (4:1) as substrate pretreated for 5 mins before substrate addition measured after overnight incubation.
Series [4] has as its target T2, Serine/threonine-protein kinase B-raf. Nature of the series: Inhibition of N-terminal FLAG-tagged recombinant BRAF V600E mutant (unknown origin) expressed in baculovirus system preincubated for 10 mins before substrate addition measured after 20 mins by scintillation counting.
Series [5] shares this target. Nature of the series: Inhibition of BRAF V600E mutant in human HT-29 cells assessed as phosphorylation of MEK. It is filed as cell-based.
The test system of a further series is Mus musculus. Description: AUC (0 to 8 hrs) in mouse at 10 mg/kg, po. The following applies: in vivo. Set-up: time < 8 hr, dose 10 mg/kg, route oral. The class given is ADME, organism-based, Blood.

Structures are written as SMILES.

The source of these data is ChEMBL document CHEMBL3124815, “Discovery of a selective kinase inhibitor (TAK-632) targeting pan-RAF inhibition: design, synthesis, and biological evaluation of C-7-substituted 1,3-benzothiazole derivatives” (J Med Chem, 2013).

T1 sequence (P35968 whole entry): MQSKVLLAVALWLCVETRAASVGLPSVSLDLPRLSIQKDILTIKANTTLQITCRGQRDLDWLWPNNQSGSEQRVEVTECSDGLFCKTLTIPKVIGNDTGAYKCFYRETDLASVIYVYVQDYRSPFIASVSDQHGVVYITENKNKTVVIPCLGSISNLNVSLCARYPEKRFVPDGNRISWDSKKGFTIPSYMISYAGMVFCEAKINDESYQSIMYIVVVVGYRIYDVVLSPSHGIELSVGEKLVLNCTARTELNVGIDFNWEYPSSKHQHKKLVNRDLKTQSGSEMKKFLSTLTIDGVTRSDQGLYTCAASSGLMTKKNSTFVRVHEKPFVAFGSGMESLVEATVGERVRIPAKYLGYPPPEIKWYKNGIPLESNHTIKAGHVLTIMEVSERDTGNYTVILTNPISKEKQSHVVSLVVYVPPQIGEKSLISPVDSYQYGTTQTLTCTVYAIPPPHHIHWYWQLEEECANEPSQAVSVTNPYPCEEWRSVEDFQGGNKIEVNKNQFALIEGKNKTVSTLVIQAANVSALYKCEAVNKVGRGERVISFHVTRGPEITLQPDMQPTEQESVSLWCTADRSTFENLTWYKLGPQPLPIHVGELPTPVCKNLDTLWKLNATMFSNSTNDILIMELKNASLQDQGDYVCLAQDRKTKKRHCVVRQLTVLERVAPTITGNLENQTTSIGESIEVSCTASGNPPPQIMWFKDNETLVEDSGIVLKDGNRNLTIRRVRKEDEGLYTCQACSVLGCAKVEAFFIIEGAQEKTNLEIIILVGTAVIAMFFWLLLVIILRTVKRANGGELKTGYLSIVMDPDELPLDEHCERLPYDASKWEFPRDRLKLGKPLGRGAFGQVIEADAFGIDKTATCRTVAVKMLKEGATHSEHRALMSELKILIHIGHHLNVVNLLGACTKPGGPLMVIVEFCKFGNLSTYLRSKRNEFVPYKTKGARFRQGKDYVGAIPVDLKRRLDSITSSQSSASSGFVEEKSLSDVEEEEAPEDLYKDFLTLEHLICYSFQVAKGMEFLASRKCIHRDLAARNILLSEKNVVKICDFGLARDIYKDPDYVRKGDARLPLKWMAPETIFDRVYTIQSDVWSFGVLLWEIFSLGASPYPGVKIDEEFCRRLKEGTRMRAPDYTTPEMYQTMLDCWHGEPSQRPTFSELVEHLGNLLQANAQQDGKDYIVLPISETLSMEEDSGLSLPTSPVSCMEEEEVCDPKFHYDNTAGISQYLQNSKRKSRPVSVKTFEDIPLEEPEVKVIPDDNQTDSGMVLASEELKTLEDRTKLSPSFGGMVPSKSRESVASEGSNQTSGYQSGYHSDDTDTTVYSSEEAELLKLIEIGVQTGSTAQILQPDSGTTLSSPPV
T2 sequence (P15056 2-766 V600E limits assumed): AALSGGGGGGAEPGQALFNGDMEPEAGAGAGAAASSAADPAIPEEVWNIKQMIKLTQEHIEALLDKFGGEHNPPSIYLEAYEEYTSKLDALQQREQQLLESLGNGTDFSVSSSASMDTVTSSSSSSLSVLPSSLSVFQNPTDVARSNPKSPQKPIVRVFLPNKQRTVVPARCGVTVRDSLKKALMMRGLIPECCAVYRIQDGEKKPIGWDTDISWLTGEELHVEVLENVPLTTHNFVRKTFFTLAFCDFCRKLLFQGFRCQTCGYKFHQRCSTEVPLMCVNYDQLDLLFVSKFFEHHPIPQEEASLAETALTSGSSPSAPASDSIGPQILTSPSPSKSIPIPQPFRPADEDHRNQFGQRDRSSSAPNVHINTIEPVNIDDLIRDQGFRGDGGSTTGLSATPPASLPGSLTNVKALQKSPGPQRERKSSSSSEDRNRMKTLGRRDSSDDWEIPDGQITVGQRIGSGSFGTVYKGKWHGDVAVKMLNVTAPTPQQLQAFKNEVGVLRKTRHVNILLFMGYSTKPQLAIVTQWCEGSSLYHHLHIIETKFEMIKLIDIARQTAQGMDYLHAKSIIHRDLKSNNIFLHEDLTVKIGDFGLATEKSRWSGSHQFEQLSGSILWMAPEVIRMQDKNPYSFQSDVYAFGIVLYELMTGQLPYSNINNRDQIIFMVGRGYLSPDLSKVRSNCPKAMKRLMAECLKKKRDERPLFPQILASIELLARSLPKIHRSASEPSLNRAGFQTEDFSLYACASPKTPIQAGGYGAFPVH

For orientation: IC50 means the concentration needed to halve the response being measured. Regarding `N#CC1(c2cccc(C(=O)Nc3cc(Oc4ccc5nc(NC(=O)C6CC6)sc5n4)ccc3F)c2Cl)CC1`, the IC50 in series [1] amounted to 2.8 nM; in series [2], 5.6 nM.

For the compound `CC(C)(C#N)c1cccc(C(=O)Nc2cccc(Oc3ccc4nc(NC(=O)C5CC5)sc4c3C(=O)O)c2)c1`, in the series filed under Homo sapiens, the Ratio IC50 amounted to 0.051. Also, the IC50 in series [3] was found to be 15 nM; in series [4], 290 nM.

Broadly, the AUC is concentration integrated over time. Consider `N#Cc1c(Oc2cccc(NC(=O)Nc3cccc(C(F)(F)F)c3)c2)ccc2nc(NC(=O)C3CC3)sc12`, for which the IC50 was 75 nM in series [5], 350 nM in series [3] and 18 nM in series [4]. The Ratio IC50 in the series listed under Homo sapiens came out at 19. Also, the AUC in the series with Mus musculus was determined as 99 ng·h/mL.

Turning to `N#Cc1c(Oc2ccc(F)c(NC(=O)Nc3cccc(C(F)(F)F)c3)c2)ccc2nc(NC(=O)C3CC3)sc12`, the IC50 in series [5] amounted to 22 nM. In addition, in the series filed under Homo sapiens, the Ratio IC50 is 15.

Turning to `N#Cc1c(Oc2ccc(F)c(NC(=O)Nc3ccc(C(F)(F)F)cc3)c2)ccc2nc(NC(=O)C3CC3)sc12`, the IC50 in series [5] is 81 nM. Moreover, the Ratio IC50 in the series listed under Homo sapiens was found to be 25. The same compound had an AUC in the series with Mus musculus of 158 ng·h/mL.

Regarding `CC(C)(C#N)c1cccc(C(=O)Nc2cccc(Oc3ccc4nc(NC(=O)C5CC5)sc4c3C#N)c2)c1`, the IC50 in series [5] is 34 nM. For the same compound, the Ratio IC50 in the series listed under Homo sapiens was 5.8. The compound also came in with an AUC in the series on Mus musculus of 149 ng·h/mL.

`CC(C)(C#N)c1cccc(C(=O)Nc2cccc(Oc3ccc4nc(NC(=O)C5CC5)sc4c3)c2)c1`: the Ratio IC50 in the series filed under Homo sapiens turned out to be 0.56.

Turning to `CC(C)(C#N)c1cccc(C(=O)Nc2cccc(Oc3ccc4nc(NC(=O)C5CC5)sc4c3CO)c2)c1`, the IC50 in series [5] came to 170 nM. In addition, the Ratio IC50 in the series listed under Homo sapiens stood at 0.31.

In the case of `COC(=O)c1c(Oc2cccc(NC(=O)c3cccc(C(C)(C)C#N)c3)c2)ccc2nc(NC(=O)C3CC3)sc12`, in series [5], the IC50 amounted to 24 nM. The Ratio IC50 in the series filed under Homo sapiens came out at 2.8.

As to `N#Cc1c(Oc2cccc(NC(=O)Cc3ccc(C(F)(F)F)cc3)c2)ccc2nc(NC(=O)C3CC3)sc12`, in series [5], the IC50 is 320 nM. The Ratio IC50 in the series filed under Homo sapiens turned out to be 20. In the series on Mus musculus, the AUC worked out at 123 ng·h/mL.

Take `N#Cc1c(Oc2cccc(NC(=O)Nc3ccc(C(F)(F)F)cc3)c2)ccc2nc(NC(=O)C3CC3)sc12`: the IC50 in series [5] worked out at 110 nM. Further, in the series filed under Homo sapiens, the Ratio IC50 came to 18. In addition, the AUC in the series with Mus musculus is 431 ng·h/mL.

`CC(C)(C#N)c1cccc(C(=O)Nc2cccc(Oc3ccc4nc(NC(=O)C5CC5)sc4c3[N+](=O)[O-])c2)c1`: in series [5], the IC50 was 29 nM. Further, the Ratio IC50 in the series listed under Homo sapiens came to 2.8.

As for `N#Cc1c(Oc2cccc(NC(=O)Nc3ccccc3C(F)(F)F)c2)ccc2nc(NC(=O)C3CC3)sc12`, the IC50 in series [5] is > 500 nM. In addition, the Ratio IC50 in the series filed under Homo sapiens was determined as 6.3. The AUC in the series on Mus musculus is 58 ng·h/mL.

In the case of `N#Cc1c(Oc2cccc(NC(=O)Cc3ccccc3C(F)(F)F)c2)ccc2nc(NC(=O)C3CC3)sc12`, in series [5], the IC50 is > 500 nM. Besides, the Ratio IC50 in the series filed under Homo sapiens amounted to 7.1. The AUC with Mus musculus stood at 255 ng·h/mL.

With `N#Cc1c(Oc2cccc(NC(=O)Cc3cccc(C(F)(F)F)c3)c2)ccc2nc(NC(=O)C3CC3)sc12`, the IC50 in series [5] was 360 nM. The Ratio IC50 in the series filed under Homo sapiens is 120. In the series with Mus musculus, this compound registered an exposure (AUC) of 3780 ng·h/mL.
